Assay results reported in US12473289B2, “Heterocyclic compounds as delta-5 desaturase inhibitors and methods of use” (Amgen Inc., priority 2019, dated 2025).

Biological target: Delta-5-Desaturase (D5D) (Homo sapiens (Human), UniProt O60427)
Experiment: In vitro measurement of Delta-5-Desaturase inhibitory activity using DGLA-CoA and Arachidonyl-CoA mass spectrometric assays
Format: biochemical
Conditions: membrane preparations of D5D-overexpressing HEK293 6E cells; averaged over at least two independent runs
Procedure: In vitro Measurement of Delta-5-Desaturase Inhibitory Activity using DGLA-CoA and Arachidonyl-CoA Mass Spectrometric Assays
Membrane preparations of D5D-overexpressing HEK293 6E cells were prepared in which the total protein concentration was 5.6 mg/mL. Stock D5D membrane preparations were diluted in D5D assay buffer (25 mM 2-amino-2-(hydroxymethyl)-1,3-propanediol, pH 7.5 containing 10 mM MgCl2, 1 mM octyl glucoside (SigmaAldrich 0-8001), 1 mM tris(2-carboxyethyl)phosphine hydrochloride (SigmaAldrich 646547)) to a final D5D membrane concentration of 10 μg/mL in an assay plate containing serially diluted test compounds. To 15 μL of this D5D preparation was added 15 μL of a substrate solution (0.25 mM NADH (nicotinamide adenine dinucleotide, Roche Diag. 10107735001), 0.25 mM adenosine triphosphate (SigmaAldrich A-3377), 0.05 mM coenzyme A hydrate (SigmaAldrich C-4282), and 0.01 mM DGLA (dihomo-g-linolenic acid, Sigma E-4504) in the same D5D assay buffer. After one-hour incubation at ambient temperature acetonitrile (30 μL) was added to quench the reaction and plates were centrifuged for 10 min @3,000 rpm. Mass spectrometric analysis involved a Rapidfire 360 SPE system coupled to an ABSciex API4000 Triple Quadrupole mass spectrometer using a C18 SPE cartridge (G9203-80105) with ionization in negative mode (solvent A=100% water; solvent B=100% acetonitrile, each solvent containing 5 mM ammonium acetate). DGLA-CoA and Arachidonyl-CoA were detected by multiple reaction monitoring (MRM) of the doubly charged parent ions at m/z 526.6 and 525.6, respectively.
Sx is value from unknown sample, So is value from DMSO alone and Sc is value from no enzyme well. For CRC analysis, the % of inhibitions were analyzed with 4 Parameter Logistic Model or Sigmoidal Dose-Response Model using XLfit (IDBS, Guilford, UK). The potency of the test item was expressed as IC50 nM, corresponding to the test item concentration able to inhibit the 50% of the enzyme maximal response. IC50 values were averaged values determined by at least two independent runs.
This assay may be used to test any of the compounds described herein to assess and characterize a compound's ability to inhibit D5D.

Delta-5-Desaturase (D5D), sequence (O60427 whole entry, species assumed): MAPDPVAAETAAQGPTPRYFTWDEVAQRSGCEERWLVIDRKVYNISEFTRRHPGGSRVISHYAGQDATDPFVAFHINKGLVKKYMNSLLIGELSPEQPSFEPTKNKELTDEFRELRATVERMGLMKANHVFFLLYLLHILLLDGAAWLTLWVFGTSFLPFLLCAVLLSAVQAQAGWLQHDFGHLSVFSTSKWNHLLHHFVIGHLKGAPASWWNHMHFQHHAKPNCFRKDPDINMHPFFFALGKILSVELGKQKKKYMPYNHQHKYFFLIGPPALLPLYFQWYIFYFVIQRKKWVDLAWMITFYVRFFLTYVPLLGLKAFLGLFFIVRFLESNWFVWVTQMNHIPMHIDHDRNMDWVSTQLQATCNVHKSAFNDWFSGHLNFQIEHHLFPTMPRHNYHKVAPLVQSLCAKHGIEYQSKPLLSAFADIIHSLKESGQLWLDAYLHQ

Row | IC50 | SMILES
1 | 8.2 nM | O=c1c(-c2cnn(CC(F)(F)C(F)(F)F)c2)c(C(F)(F)F)nc2cc(Cl)ccn12 [Example 2-6, 8-chloro-3-(1-(2,2,3,3,3-pentafluoropropyl)-1H-pyrazol-4-yl)-2-(trifluoromethyl)-4H-pyrido[1,2-a]pyrimidin-4-one]
2 | 4.1 nM | O=c1c(-c2ccc(OCC(F)(F)F)cc2)c(C(F)(F)F)nc2cc(Cl)ccn12 [Example 2-7, 8-chloro-3-(4-(2,2,2-trifluoroethoxy)phenyl)-2-(trifluoromethyl)-4H-pyrido[1,2-a]pyrimidin-4-one]
3 | 25.4 nM | C=Cc1ccn2c(=O)c(-c3ccc(OCC(F)(F)F)cc3)c(C(F)(F)F)nc2c1 [Example 2-8, 8-ethenyl-3-(4-(2,2,2-trifluoroethoxy)phenyl)-2-(trifluoromethyl)-4H-pyrido[1,2-a]pyrimidin-4-one]
4 | 440 nM | N#Cc1ccn2c(=O)c(-c3ccc(OCC(F)(F)F)cc3)c(C(F)(F)F)nc2c1 [Example 2-9, 4-oxo-3-(4-(2,2,2-trifluoroethoxy)phenyl)-2-(trifluoromethyl)-4H-pyrido[1,2-a]pyrimidine-8-carbonitrile]
5 | 53.9 nM | CCc1nc2cc(OC)ccn2c(=O)c1-c1cnn(CC(F)(F)C(F)(F)F)c1 [Example 3-1, 2-Ethyl-8-methoxy-3-(1-(2,2,3,3,3-pentafluoropropyl)-1H-pyrazol-4-yl)-4H-pyrido[1,2-a]pyrimidin-4-one]
6 | 111 nM | O=c1c(-c2ccc(OCC(F)(F)F)cc2)c(C(F)(F)F)nc2cc(C3CC3)ccn12 [Example 4-2, 8-cyclopropyl-3-(4-(2,2,2-trifluoroethoxy)phenyl)-2-(trifluoromethyl)-4H-pyrido[1,2-a]pyrimidin-4-one]
7 | 12.5 nM | O=c1c(-c2ccc(OCC(F)(F)F)cc2F)c(C(F)(F)F)nc2ccccn12 [Example 5-1, 3-(2-Fluoro-4-(2,2,2-trifluoroethoxy)phenyl)-2-(trifluoromethyl)-4H-pyrido[1,2-a]pyrimidin-4-one]
8 | 157 nM | O=c1c(-c2ccc(OCC(F)(F)F)c(Cl)c2)c(C(F)(F)F)nc2ccccn12 [Example 5-2, 3-(3-chloro-4-(2,2,2-trifluoroethoxy)phenyl)-2-(trifluoromethyl)-4H-pyrido[1,2-a]pyrimidin-4-one]
9 | 5190 nM | O=c1c(-c2cnn(C3CC3)c2)c(C(F)(F)F)nc2ccccn12 [Example 5-3, 3-(1-cyclopropyl-1H-pyrazol-4-yl)-2-(trifluoromethyl)-4H-pyrido[1,2-a]pyrimidin-4-one]
10 | 198 nM | CCCn1cc(-c2c(C(F)(F)F)nc3ccccn3c2=O)cn1 [Example 5-4, 3-(1-propyl-1H-pyrazol-4-yl)-2-(trifluoromethyl)-4H-pyrido[1,2-a]pyrimidin-4-one]
11 | 125 nM | COc1ccn2c(=O)c(-c3ccc(OCC(F)(F)F)nc3F)c(C(F)(F)F)nc2c1 [Example 7-1, 3-(2-Fluoro-6-(2,2,2-trifluoroethoxy)-3-pyridinyl)-8-methoxy-2-(trifluoromethyl)-4H-pyrido[1,2-a]pyrimidin-4-one]
12 | 5230 nM | O=c1c(-c2ccc(OCC(F)(F)F)cn2)c(C(F)(F)F)nc2ccccn12 [Example 7-2, 3-(5-(2,2,2-trifluoroethoxy)-2-pyridinyl)-2-(trifluoromethyl)-4H-pyrido[1,2-a]pyrimidin-4-one]
13 | 4050 nM | COc1ccn2c(=O)c(-c3cnc(OCC(F)(F)F)c(F)c3)c(C(F)(F)F)nc2c1 [Example 7-3, 3-(5-fluoro-6-(2,2,2-trifluoroethoxy)-3-pyridinyl)-8-methoxy-2-(trifluoromethyl)-4H-pyrido[1,2-a]pyrimidin-4-one]
14 | 11.9 nM | COc1ccn2c(=O)c(-c3ccc(CCC(F)(F)F)cc3)c(C(F)(F)F)nc2c1 [Example 7-5, 8-methoxy-2-(trifluoromethyl)-3-(4-(3,3,3-trifluoropropyl)phenyl)-4H-pyrido[1,2-a]pyrimidin-4-one]
15 | 302 nM | CCCc1ccc(-c2c(C(F)(F)F)nc3cc(OC)ccn3c2=O)cn1 [Example 7-6, 8-methoxy-3-(6-propyl-3-pyridinyl)-2-(trifluoromethyl)-4H-pyrido[1,2-a]pyrimidin-4-one]
16 | 605 nM | COc1ccn2c(=O)c(-c3ccc(OCC(F)(F)F)cc3C(F)(F)F)c(C(F)(F)F)nc2c1 [Example 8-2, 8-methoxy-3-(4-(2,2,2-trifluoroethoxy)-2-(trifluoromethyl)phenyl)-2-(trifluoromethyl)-4H-pyrido[1,2-a]pyrimidin-4-one]
17 | 22.5 nM | COc1ccn2c(=O)c(-c3ccc(OCC(F)(F)F)cc3Cl)c(C(F)(F)F)nc2c1 [Example 8-3, 3-(2-chloro-4-(2,2,2-trifluoroethoxy)phenyl)-8-methoxy-2-(trifluoromethyl)-4H-pyrido[1,2-a]pyrimidin-4-one]
18 | 16.2 nM | COc1ccn2c(=O)c(-c3ccc(OC(C)C#N)cc3)c(C(F)(F)F)nc2c1 (stereo not drawn) [Example 8-4, 2-(4-(8-methoxy-4-oxo-2-(trifluoromethyl)-4H-pyrido[1,2-a]pyrimidin-3-yl)phenoxy)propanenitrile]
19 | 23.5 nM | COc1ccn2c(=O)c(-c3ccc(O[C@H](C)C#N)cc3)c(C(F)(F)F)nc2n1 [Example 8-6, (2R)-2-(4-(8-methoxy-4-oxo-2-(trifluoromethyl)-4H-pyrimido[1,2-a]pyrimidin-3-yl)phenoxy)propanenitrile]
20 | 4910 nM | COc1ccn2c(=O)c(-c3ccc(O[C@@H](C)C#N)cc3)c(C(F)(F)F)nc2n1 [Example 8-7, (2S)-2-(4-(8-methoxy-4-oxo-2-(trifluoromethyl)-4H-pyrimido[1,2-a]pyrimidin-3-yl)phenoxy)propanenitrile]
21 | 566 nM | COc1ccn2c(=O)c(-c3ccc(O[C@H](C)C#N)cc3)c(C(F)(F)F)nc2c1 [Example 8-8, (2R)-2-(4-(8-methoxy-4-oxo-2-(trifluoromethyl)-4H-pyrido[1,2-a]pyrimidin-3-yl)phenoxy)propanenitrile]
22 | 328 nM | O=c1ccn2c(=O)c(-c3ccc(OCC(F)(F)F)c(F)c3)c(C(F)(F)F)nc2[nH]1 [Example 10-2, 7-(3-fluoro-4-(2,2,2-trifluoroethoxy)phenyl)-8-(trifluoromethyl)-2H-pyrimido[1,2-a]pyrimidine-2,6(1H)-dione]
23 | 900 nM | O=c1ccn2c(=O)c(-c3ccc(OCC(F)(F)F)cc3)c(C(F)(F)F)nc2[nH]1 [Example 10-3, 7-(4-(2,2,2-trifluoroethoxy)phenyl)-8-(trifluoromethyl)-2H-pyrimido[1,2-a]pyrimidine-2,6(1H)-dione]
24 | 48.2 nM | [2H]C([2H])([2H])n1c(=O)ccn2c(=O)c(-c3ccc(OCC(F)(F)F)cc3)c(C(F)(F)F)nc12 [Example 11-1, 1-(Methyl-d3)-7-(4-(2,2,2-trifluoroethoxy)phenyl)-8-(trifluoromethyl)-2H-pyrimido[1,2-a]pyrimidine-2,6(1H)-dione]
25 | 120 nM | CNC(=O)c1ccn2c(=O)c(-c3ccc(OCC(F)(F)F)cc3)c(C(F)(F)F)nc2c1 [Example 12-1, N-Methyl-4-oxo-3-(4-(2,2,2-trifluoroethoxy)phenyl)-2-(trifluoromethyl)-4H-pyrido[1,2-a]pyrimidine-8-carboxamide]
26 | 5.2 nM | NC(=O)c1ccn2c(=O)c(-c3ccc(OCC(F)(F)F)cc3)c(C(F)(F)F)nc2c1 [Example 12-2, 4-oxo-3-(4-(2,2,2-trifluoroethoxy)phenyl)-2-(trifluoromethyl)-4H-pyrido[1,2-a]pyrimidine-8-carboxamide]
27 | 2540 nM | CN(C)C(=O)c1ccn2c(=O)c(-c3ccc(OCC(F)(F)F)cc3)c(C(F)(F)F)nc2c1 [Example 12-3, N,N-dimethyl-4-oxo-3-(4-(2,2,2-trifluoroethoxy)phenyl)-2-(trifluoromethyl)-4H-pyrido[1,2-a]pyrimidine-8-carboxamide]
28 | 685 nM | CCNC(=O)c1ccn2c(=O)c(-c3ccc(OCC(F)(F)F)cc3)c(C(F)(F)F)nc2c1 [Example 12-4, N-ethyl-4-oxo-3-(4-(2,2,2-trifluoroethoxy)phenyl)-2-(trifluoromethyl)-4H-pyrido[1,2-a]pyrimidine-8-carboxamide]

Row | SMILES | IC50
29 | O=c1c(-c2ccc(OCC(F)(F)F)cc2)c(C(F)(F)F)nc2cc(C(F)(F)F)ccn12 [Example 4-1, 3-(4-(2,2,2-Trifluoroethoxy)phenyl)-2,8-bis(trifluoromethyl)-4H-pyrido[1,2-a]pyrimidin-4-one] | 5220 nM
30 | COc1ccn2c(=O)c(-c3ccc(OCC(F)(F)C(F)F)cc3)c(C(F)(F)F)nc2c1 [Example 9-1, 8-Methoxy-3-(4-(2,2,3,3-tetrafluoropropoxy)phenyl)-2-(trifluoromethyl)-4H-pyrido[1,2-a]pyrimidin-4-one] | 11.1 nM
